In US6498163B1, “Pyrido[2,3-D]pyrimidines and 4-aminopyrimidines as inhibitors of cellular proliferation” (Warner-Lambert Company, priority 1997, dated 2002):
Read-outs that look alike come from different tables or passages of the source. One block for each compound: values may come before it.

Experiments:
[1] = biological target: cdk4/D (Homo sapiens, UniProt P11802); test: Cyclin-dependent kinase 4 (cdk4) assay; assay type: biochemical; conditions: for cdk4/D % inhibition at 40 μM: Table 2
Description: As noted above, the compounds of this invention are potent inhibitors of cyclin-dependent kinases, and accordingly, are useful in treating and preventing atherosclerosis, and other cell proliferative disorders like cancer. […] A typical assay, for instance, measures inhibitory activity against the cyclin D dependent kinase 4 enzyme (cdk4/D). […] The cdk 4 assay was carried out as follows.
Cyclin-Dependent Kinase 4 (cdk4) Assay
The total volume was 0.1 mL containing a final concentration of 20 mM TRIS (tris[hydroxymethyl]aminomethane), at pH 7.4, 50 mM NaCl, 1 mM dithiothreitol, 10 mM MgCl2, 25 μM ATP containing 0.25 μCi of [^32P]ATP, 20 ng of cdk4, 1 μg of retinoblastoma, and appropriate dilutions of a compound of the present invention. All components except the ATP were added to the wells, and the plate was placed on a plate mixer for 2 minutes. The reaction was started by adding [^32P]ATP and the plate was incubated at 25° C. for 15 minutes. The reaction was terminated by addition of 0.1 mL of 20% trichloroacetic acid (TCA). The plate was kept at 4° C. for at least 1 hour to allow the substrate to precipitate. The wells were then washed five times with 0.2 mL of 10% TCA and ^32P incorporation was determined with a beta plate counter (Wallac Inc., Gaithersburg, Md.).

[2] = biological target: cdc2/cyclinB (Homo sapiens, UniProt P06493); test: Cyclin-dependent kinase assay cdc2/cyclinB (cdk1/B); assay type: biochemical; conditions: Table 1
[3] = Plasma levels in mice after dosing; assay type: in vivo, nude mice; conditions: intraperitoneally at 12 mg/kg, at 30 minutes following dosing
Description: For example, the compound of Example 60 was administered orally at 5 mg/kg to mice, and plasma levels of about 200 nM were measured at 30 minutes following dosing. The compound was also administered intraperitoneally at 12 mg/kg and produced a peak plasma concentration of 10,000 nM at 30 minutes following dosing.

[4] = test system: MCF-7 human mammary tumor xenografts; test: MCF-7 human mammary tumor xenograft; assay type: in vivo, female nude mice; conditions: 5 to 20 mg/kg, q12 h×2; days 1-14, subcutaneous MCF-7 xenografts
[5] = biological target: c-Src (Homo sapiens, UniProt P12931); test: c-Src protein kinase assay; assay type: biochemical; conditions: Table 5
Description: Several of the invention compounds have been evaluated in a standard assay to measure their ability to inhibit cellular Src protein kinase (c-Src). […] The assay was carried out as follows:
C-Src kinase was purified from baculovirus infected insect cell lysates using an antipeptide monoclonal antibody directed against the N-terminal amino acids (amino acids 2-17) of c-Src. The antibody, covalently linked to 0.65 μm latex beads, was added to a suspension of insect cell lysis buffer comprised of 150 mM NaCl, 50 mM Tris pH 7.5, 1 mM DTT, 1% NP-40, 2 mM EGTA, 1 mM sodium vanadate, 1 mM PMSF, 1 μg/mL each of leupeptin, pepstatin, and aprotinin. Insect cell lysate containing c-Src protein was incubated with these beads for 3 to 4 hours at 4° C. with rotation. At the end of the lysate incubation, the beads were rinsed three times in lysis buffer, resuspended in lysis buffer containing 10% glycerol, and frozen. These latex beads were thawed, rinsed three times in assay buffer (40 mM Tris, pH 7.5, 5 mM […]) and suspended in the same buffer. […] The filters were then punched, counted in a liquid scintillation counter, and the data examined for inhibitory activity in comparison to a known inhibitor such as erbstatin. […]

[6] = biological target: T1, PDGF-β receptor tyrosine kinase (Mus musculus, UniProt P05622); test: PDGF receptor tyrosine kinase assay; assay type: biochemical; conditions: Table 4, Formula II compound
T1 construct: amplify a fragment of DNA that codes for the intracellular tyrosine kinase domain; made in house; host or cells: SF9 insect cells (baculovirus)
Description: (§1) The compounds of Formulas I and II also have shown good inhibitory activity against certain growth factor receptor tyrosine kinase enzymes, including fibroblast growth factor (FGF) and platelet derived growth factor (PDGF). […] The invention compounds range in IC50 inhibition against FGF tyrosine kinase generally from about 0.004 to about 40 μM. […] The assays used to determine these activities were carried out as follows:
(§2) PDGF and EGF Receptor Tyrosine Kinase Assays
(§3) Full-length cDNAs for the mouse PDGF-β and human FGF-1 (flg) receptor tyrosine kinases were obtained from J. Escobedo and prepared as described in J. Biol. Chem., 1991;262:1482-1487. PCR primers were designed to amplify a fragment of DNA that codes for the intracellular tyrosine kinase domain. The fragment was inserted into a baculovirus vector, cotransfected with AcMNPV DNA, and the recombinant virus isolated. SF9 insect cells were infected with the virus to overexpress the protein, and the cell lysate was used for the assay. […] Filters were washed three times with 15% TCA containing 100 mM sodium pyrophosphate, and the radioactivity retained on the filters counted in a Wallac 1250 Betaplate reader. Nonspecific activity was defined as radioactivity retained on the filters following incubation of samples with buffer alone (no enzyme). […]

[7] = biological target: T2, FGF-1 (flg) receptor tyrosine kinase (Homo sapiens, UniProt P11362); test: FGF receptor tyrosine kinase assay; assay type: biochemical; conditions: Table 4, Formula II compound
T2 construct: amplify a fragment of DNA that codes for the intracellular tyrosine kinase domain; made in house; host or cells: SF9 insect cells (baculovirus)
Description: as §1, §2, §3

[8] = Table 2, Formula II compounds, read-out: cdk4/IC50 IC50

Sequence of cdk4/D (P11802 whole entry, species assumed): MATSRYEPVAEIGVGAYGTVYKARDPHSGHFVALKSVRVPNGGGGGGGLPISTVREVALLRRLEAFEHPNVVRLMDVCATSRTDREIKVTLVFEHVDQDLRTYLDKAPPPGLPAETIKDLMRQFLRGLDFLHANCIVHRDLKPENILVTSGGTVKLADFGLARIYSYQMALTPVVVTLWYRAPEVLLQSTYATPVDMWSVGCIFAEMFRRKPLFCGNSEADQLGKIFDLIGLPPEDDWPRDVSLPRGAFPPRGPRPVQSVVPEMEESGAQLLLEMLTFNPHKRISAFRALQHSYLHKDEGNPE
Sequence of cdk4/D (P24385 whole entry partner, species assumed): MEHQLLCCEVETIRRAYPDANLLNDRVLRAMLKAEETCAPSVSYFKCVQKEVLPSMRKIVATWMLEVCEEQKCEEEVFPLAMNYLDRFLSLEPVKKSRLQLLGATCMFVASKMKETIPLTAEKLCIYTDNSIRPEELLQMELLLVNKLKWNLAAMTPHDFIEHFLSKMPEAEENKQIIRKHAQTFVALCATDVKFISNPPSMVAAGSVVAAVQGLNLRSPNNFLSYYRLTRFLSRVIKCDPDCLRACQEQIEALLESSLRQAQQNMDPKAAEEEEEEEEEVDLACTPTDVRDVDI
Sequence of cdc2/cyclinB (P06493 whole entry, species assumed): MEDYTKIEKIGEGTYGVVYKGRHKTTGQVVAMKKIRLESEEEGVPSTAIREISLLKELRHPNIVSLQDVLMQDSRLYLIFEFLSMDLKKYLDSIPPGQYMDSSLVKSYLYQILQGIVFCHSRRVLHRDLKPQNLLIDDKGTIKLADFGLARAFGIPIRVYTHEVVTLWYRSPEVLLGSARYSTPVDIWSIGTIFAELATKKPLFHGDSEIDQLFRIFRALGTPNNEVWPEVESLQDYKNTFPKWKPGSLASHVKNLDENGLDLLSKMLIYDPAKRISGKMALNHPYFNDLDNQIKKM
Sequence of cdc2/cyclinB (P14635 whole entry partner, species assumed): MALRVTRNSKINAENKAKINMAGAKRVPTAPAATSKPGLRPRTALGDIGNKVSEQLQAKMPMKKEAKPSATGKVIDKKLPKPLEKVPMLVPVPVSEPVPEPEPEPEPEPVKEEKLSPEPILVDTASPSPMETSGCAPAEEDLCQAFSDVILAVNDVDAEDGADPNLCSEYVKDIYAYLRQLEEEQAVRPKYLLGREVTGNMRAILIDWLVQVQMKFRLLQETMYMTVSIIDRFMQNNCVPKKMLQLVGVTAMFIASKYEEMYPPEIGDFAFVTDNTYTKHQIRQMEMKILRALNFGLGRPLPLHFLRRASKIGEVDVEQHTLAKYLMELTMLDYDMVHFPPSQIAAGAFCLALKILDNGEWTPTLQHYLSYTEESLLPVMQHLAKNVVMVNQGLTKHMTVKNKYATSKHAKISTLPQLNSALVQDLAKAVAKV
T1 sequence (P05622 599-961 limits assumed): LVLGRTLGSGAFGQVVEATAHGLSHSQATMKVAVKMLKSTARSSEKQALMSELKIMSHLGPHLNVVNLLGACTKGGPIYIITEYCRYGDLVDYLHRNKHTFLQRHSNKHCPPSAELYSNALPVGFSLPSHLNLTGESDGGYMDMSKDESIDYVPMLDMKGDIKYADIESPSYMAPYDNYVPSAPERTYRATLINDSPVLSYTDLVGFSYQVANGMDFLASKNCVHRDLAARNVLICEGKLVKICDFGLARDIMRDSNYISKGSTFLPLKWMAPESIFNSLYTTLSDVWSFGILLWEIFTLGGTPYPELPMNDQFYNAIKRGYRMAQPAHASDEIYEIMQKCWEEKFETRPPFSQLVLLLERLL
Sequence of c-Src (P12931 whole entry, species assumed): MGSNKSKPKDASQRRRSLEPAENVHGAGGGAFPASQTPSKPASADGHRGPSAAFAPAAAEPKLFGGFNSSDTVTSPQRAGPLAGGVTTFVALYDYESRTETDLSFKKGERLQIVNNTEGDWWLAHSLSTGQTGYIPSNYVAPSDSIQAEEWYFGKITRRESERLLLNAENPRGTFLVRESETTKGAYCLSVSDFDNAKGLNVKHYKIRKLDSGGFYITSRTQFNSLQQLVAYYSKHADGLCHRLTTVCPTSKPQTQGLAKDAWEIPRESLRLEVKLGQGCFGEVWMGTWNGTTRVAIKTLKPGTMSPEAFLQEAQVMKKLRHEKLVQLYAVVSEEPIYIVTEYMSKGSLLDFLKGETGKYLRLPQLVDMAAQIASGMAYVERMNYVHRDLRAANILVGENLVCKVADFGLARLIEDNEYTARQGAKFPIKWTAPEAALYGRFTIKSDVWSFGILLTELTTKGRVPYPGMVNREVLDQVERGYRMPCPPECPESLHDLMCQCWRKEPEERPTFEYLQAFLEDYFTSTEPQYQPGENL
T2 sequence (P11362 478-767 limits assumed): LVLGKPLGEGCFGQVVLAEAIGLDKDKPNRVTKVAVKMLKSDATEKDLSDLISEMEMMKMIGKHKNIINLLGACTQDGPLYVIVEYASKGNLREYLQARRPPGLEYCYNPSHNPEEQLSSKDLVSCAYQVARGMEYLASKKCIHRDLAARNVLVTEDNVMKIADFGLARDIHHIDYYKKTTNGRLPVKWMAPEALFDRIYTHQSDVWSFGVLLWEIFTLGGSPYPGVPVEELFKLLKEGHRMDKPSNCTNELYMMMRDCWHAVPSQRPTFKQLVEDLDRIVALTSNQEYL

Compound: 3-(4-Ethylamino-2-phenylamino-pyrimidin-5yl)acrylonitrile [Example 72]
- cdk4/D % inhibition at 40 μM [1]: 18%

Compound: CC(C)n1c(=O)ccc2cnc(Nc3ccc(N4CCN(C)CC4)cc3)nc21 [Example 60, 8-Isopropyl-2-[4-(4-methylpiperazin-1-yl)-phenylamino]-8H-pyrido[2,3-d]pyrimidin-7-one]
- peak plasma concentration [3]: 10,000 nM
- tumor growth inhibition [4]: statistically insignificant tumor growth inhibitions

Compound: CCn1c(=O)c(C)cc2cnc(Nc3ccc(N4CCN(C)CC4)cc3)nc21 [Example 84]
- IC50 ([1]; Table 1, read-out: cdk4/D IC50): 0.18 µM

Compound: O=c1ccc2cnc(Nc3ccccc3)nc2n1CCCOCc1ccccc1 [Example 38, 8-(3-Benzyloxypropyl)-2-phenylamino-8H-pyrido[2,3-d]pyrimidin-7-one]
- IC50 ([1]; Table 1, read-out: cdk4/D IC50): 2.69 µM
- IC50 [2]: 29.8 µM

Compound: 3-(4-Ethylamino-2-phenylamino-pyrimidin-5-yl)-but-2-enoic acid ethyl ester [Example 73]
- cdk4/D % inhibition at 40 μM [1]: 58%

Compound: CCNc1nc(Nc2ccccc2)ncc1/C=C/C(=O)OCC [Example 17, Ethyl 3-(4-Ethylamino-2-phenylamino-pyrimidin-5-yl)acrylate]
- IC50 [1, 8]: 2 µM
- IC50 [6]: 3.7 µM
- IC50 [7]: 4.5 µM
- melting point: 125 to 126 °C

Compound: CCOC(=O)/C=C/c1cnc(Nc2ccccc2)nc1N [Example 28, Ethyl 3-(4-Amino-2-phenylamino-pyrimidin-5-yl)acrylate]
- IC50 [1, 8]: 65 µM
- melting point: 190 to 192 °C

Results, then the compound that gave them:

- IC50 ([1]; Table 1, read-out: cdk4/D IC50): 0.48 µM
- IC50 [2]: 0.089 µM
Compound: CN(C)c1ccc(Nc2ncc3ccc(=O)n(C4CCCCC4)c3n2)cc1 [Example 147, 8-Cyclohexyl-2-(4-dimethylamino-phenylamino)-8H-pyrido[2,3-d]pyrimidin-7-one]

- IC50 [5]: 1.85 µM
Compound: CC1CN(c2ccc(Nc3ncc4ccc(=O)n(C5CCCCC5)c4n3)cc2)CC(C)N1CCO (stereo not drawn) [Example 143, 8-Cyclohexyl-2-{4-[4-(2-hydroxy-ethyl)-3,5-dimethyl-piperazin-1-yl]-phenylamino}-8H-pyrido[2,3-d]pyrimidin-7-one]

- melting point: 174 to 175 °C
Compound: CCOC(=O)C1CCN(c2ccc(Nc3ncc4ccc(=O)n(C5CCCCC5)c4n3)cc2)CC1 [Example 164, 1-[4-(8-Cyclohexyl-7-oxo-7,8-dihydro-pyrido[2,3-d]pyrimidin-2-ylamino)-phenyl]-piperidine-4-carboxylic acid ethyl ester]

- melting point: 111 to 112 °C
Compound: O=c1ccc2cnc(NCCCN3CCCCC3)nc2n1C1CCCCC1 [Example 166, 8-Cyclohexyl-2-(3-piperidin-1-yl-propylamino)-8H-pyrido[2,3-d]pyrimidin-7-one]
